In publication PMC4721062, “Oxadiazole-2-oxides may have other functional targets, in addition to SjTGR, through which they cause mortality in Schistosoma japonicum” (Parasites & Vectors, 2016):
Entries after “also recorded” stand apart in the source; their conditions may differ. Read-outs that look alike come from different tables or passages of the source.

Key:
adult S. japonica = experiment: Activity against adult S. japonica in vitro with and without NO scavenger carboxy-PTIO; type: cell-based, Schistosoma japonicum; design: dose or concentration left out as unconfirmed; conditions: adult worms in vitro
Experimental: To assess the importance of NO production, the potassium salt of carboxy-PTIO, a NO scavenger, was dissolved in water and 100 mM was incubated with freshly perfused adult S. japonica in the presence or absence of […] oxadiazole-2-oxides. The worms’ mobility, tegumental alterations and parasite survival were monitored using an inverted microscope. The experiment was done in triplicate.
Fig. 4 Activity of oxadiazole-2-oxides against adult S. japonica in vitro, with and without carboxy-PTIO. Carboxy-PTIO was incubated with freshly perfused adult S. japonica at 100 mM in the presence and absence of […] oxadiazole-2-oxides. The worms’ mobility, tegumental alterations and survival rates were monitored under an inverted microscope. The experiment was done in triplicate. The percentage of adult worms that survived are shown (mean ± SD; n = 3)

recombinant SjTGR = target: T1, recombinant SjTGR (Schistosoma japonicum, UniProt B5THG7); experiment: Inhibition of TrxR activity of recombinant SjTGR (DTNB assay); type: biochemical; conditions: 50 nM SjTGR, 1 mM NADPH, 15 min preincubation, DTNB reduction
T1 sequence (B5THG7 1-596): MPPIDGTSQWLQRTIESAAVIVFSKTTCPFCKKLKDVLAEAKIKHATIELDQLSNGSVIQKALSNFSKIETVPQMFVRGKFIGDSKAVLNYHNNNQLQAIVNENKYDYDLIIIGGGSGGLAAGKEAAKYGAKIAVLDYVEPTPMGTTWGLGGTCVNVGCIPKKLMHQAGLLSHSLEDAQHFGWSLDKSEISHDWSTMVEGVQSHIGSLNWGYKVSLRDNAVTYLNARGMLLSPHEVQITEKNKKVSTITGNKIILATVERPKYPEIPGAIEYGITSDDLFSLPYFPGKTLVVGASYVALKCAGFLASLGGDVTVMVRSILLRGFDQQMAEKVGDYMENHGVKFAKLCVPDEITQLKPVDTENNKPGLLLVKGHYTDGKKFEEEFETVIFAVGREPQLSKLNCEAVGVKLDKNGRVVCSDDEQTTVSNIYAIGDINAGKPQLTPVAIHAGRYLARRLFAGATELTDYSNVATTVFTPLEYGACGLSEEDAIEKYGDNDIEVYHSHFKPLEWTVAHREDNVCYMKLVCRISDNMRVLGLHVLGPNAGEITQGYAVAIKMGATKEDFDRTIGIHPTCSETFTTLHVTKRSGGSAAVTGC
Summary of the method: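 SjTGR (50 nM) preincubated 15 min at room temperature with 1 mM NADPH and oxadiazole-2-oxides (2-20 μM). Reaction started with potassium phosphate pH 7.4, 10 mM EDTA, 100 μM NADPH, 3 mM DTNB; A412 increase followed over first 2 min, triplicates.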

[1] = tested on: juvenile S. japonicum in mice; experiment: Treatment of infected mice at juvenile worm stage; type: in vivo, Schistosoma japonicum (ICR mice); conditions: 10 mg/kg i.p. daily for 5 days from day 7 post-infection; for Number of eggs per gram of liver (Mean ± SD) / Number of worms (Mean ± SD): sacrificed day 42; for Egg reduction rate / Worm reduction rate: versus control, 10 mg/kg
Experimental: (§1) The abdominal skin of each mouse (ICR, female, 22–24 g) was exposed to 20 S. japonica cercariae (as described above). The mice were intraperitoneally injected with 10 mg/kg oxadiazole-2-oxides daily for 5 days, beginning either 7 or 35 days post-infection. Control mice were treated with 10 mg/kg of the carrier medium. All mice were sacrificed 42 days post-infection. The worm burden of each mouse was confirmed by counting the number of worms observed from a portal vein perfusion. The mouse livers were digested overnight with 5 % potassium hydroxyl solution at 37 °C and the eggs in the liver tissue were counted under an inverted phase contrast microscope. The worm and egg reduction rates were calculated using the following formulas: Wormreductionrate%=meannumberofadultwormspermouseincontrolgroup−meannumberofadultwormspermouseinexperimentalgroup/meannumberofadultwormspermouseincontrolgroup. Eggreductionrate%=meannumberofeggspermouseincontrolgroup−meannumberofeggspermouseinexperimentalgroup/meannumberofeggspermouseincontrolgroup.

[2] = Cytotoxicity assay on Hela cells (MTT); type: cell-based; conditions: human
Experimental: Cytotoxicity assays were performed using Hela cells. Cells in the exponential growth phase were collected by centrifugation and a concentration of 4–5 × 10^4/mL was created. 100 μL of the cell suspension was added to each well of a 96-well plate and cultured overnight at 37 °C in a humid atmosphere with 5 % CO2. Oxadiazole-2-oxides (at 10, 20, 40, 80 and 160 μM) were added. Each concentration was assayed in triplicate, and control wells (no cells and no drugs) were assayed at the same time. The “no cell” control wells only contained RPMI 1640 medium, MTT, DMSO, and oxadiazole-2-oxides. The “no drug” control wells contained the Hela cells, RPMI 1640 medium, MTT and DMSO. The cells were cultured for 48 h at 37 °C in a humid atmosphere with 5 % CO2. Then, 20 μL of 5 mg/mL MTT was added to each well and the culture conditions were maintained for 4 h. After this point, the medium was removed and 150 μL DMSO was added into each well to dissolve any crystallisation. The value of absorbance at 570 nm of each well was measured (at 570 nm) with a microplate reader to assess the toxic effect of the oxadiazole-2-oxides on the vertebrate cells.

[3] = tested on: adult S. japonicum in mice; experiment: Treatment of infected mice at adult worm stage; type: in vivo, Schistosoma japonicum (ICR mice); conditions: for Reduction in the female worms: mice treated at adult worm stage (data not shown); for Number of eggs per gram of liver (Mean ± SD) / Number of worms (Mean ± SD) / Egg reduction rate / Worm reduction rate: mice, 10 mg/kg i.p. daily for 5 days from day 35 post-infection; for Number of eggs per gram of liver (Mean ± SD) / Number of worms (Mean ± SD): sacrificed day 42; for Egg reduction rate / Worm reduction rate: versus control
Experimental: as §1

S. mansoni = conditions: compared with 10 μM, 72 h data; cited from earlier work

Structure (SMILES) | IC50 (recombinant SjTGR; read-out: IC50 of SjTGR) [µM] | Number of eggs per gram of liver (Mean ± SD) [1] | Number of worms (Mean ± SD) [1] | Egg reduction rate [1] | Worm reduction rate [1] | viability at 72 h, 80 µM [2] [%] | Number of eggs per gram of liver (Mean ± SD) [3] | Number of worms (Mean ± SD) [3] | other results
N#Cc1c(-c2ccc(OC/C=C/CBr)cc2)no[n+]1[O-] [Compound 16] | 0.5 | 4,054.5 ± 1,322.1 (P > 0.05^**) | 1.0 ± 0.5 (P > 0.05^**) | 49.5 (P < 0.01^*) % | 90.8 (P < 0.01^*) % | 89 | 6424.1 ± 1193.4 (P < 0.05^**) | 3.7 ± 1.4 (P > 0.05^**) | Killing activity with versus without carboxy-PTIO (adult S. japonica): no differences in the killing activities; Reduction in the female worms [3]: 44.7%; Egg reduction rate ([3]; 10 mg/kg): 20.0 (P > 0.05^*) %; Worm reduction rate ([3]; 10 mg/kg): 69.4 (P < 0.01^*) %
N#Cc1c(-c2ccc(OCCCBr)cc2)no[n+]1[O-] [Compound 13] | 1.6 | 3,808.9 ± 1,288.9 (P > 0.05^**) | 1.7 ± 0.7 (P > 0.05^**) | 52.6 (P < 0.05^*) % | 84.6 (P < 0.01^*) % | 80 | 8201.4 ± 2066.0 (P < 0.05^**) | 8.6 ± 2.4 (P < 0.05^**) | Worm reduction rate [3]: 28.3 (P < 0.05^*) %
N#Cc1c(-c2ccc(COc3ccccc3)cc2)no[n+]1[O-] [Compound 23] | > 20 |  |  |  |  |  |  |  | IC50 of SjTGR (recombinant SjTGR): did not inhibit
Cc1ccc(-c2no[n+]([O-])c2C#N)cc1 [Compound 7b] |  |  |  |  |  |  |  |  | IC50 (recombinant SjTGR; IC50 of SjTGR): 14.2 µM; Mortality in adult worms of S. mansoni (S. mansoni): 70.0%
N#Cc1c(-c2ccc(OCCBr)cc2)no[n+]1[O-] [Compound 12] | 21.7 |  |  |  |  |  |  |  | 
N#Cc1c(-c2ccc(Br)cc2)no[n+]1[O-] [Compound 7c] |  | 3,859.4 ± 3,749.4 (P > 0.05^**) | 1.4 ± 0.8 (P > 0.05^**) | 52.0 ( P > 0.05^*) % | 87.1 (P < 0.01^*) % | 66 | 7213.0 ± 2658.0 (P < 0.05^**) | 12.0 ± 3.9 (P < 0.05^**) | Killing activity with versus without carboxy-PTIO (adult S. japonica): no differences in the killing activities; IC50 (recombinant SjTGR; IC50 of SjTGR): 3.7 µM; Mortality in adult worms of S. mansoni (S. mansoni): 100.0%; Egg reduction rate [3]: 10.2 (P > 0.05^*) %
COc1ccc(-c2no[n+]([O-])c2CO)cc1 [Compound 4a] | 2.7 | 4,258.9 ± 1,910.0 (P > 0.05^**) | 1.3 ± 0.8 (P > 0.05^**) | 47.0 (P < 0.05^*) % | 87.7 (P < 0.01^*) % | 91 | 7730.8 ± 1457.8 (P < 0.05^**) | 4.0 ± 2.5 (P > 0.05^**) | Reduction in the female worms [3]: 36.8%; Egg reduction rate ([3]; 10 mg/kg): 3.8 (P > 0.05^*) %; Worm reduction rate ([3]; 10 mg/kg): 66.7 (P < 0.01^*) %
N#Cc1c(-c2ccc(COc3ccc(C=O)cc3)cc2)no[n+]1[O-] [Compound 26] | > 20 |  |  |  |  |  |  |  | IC50 of SjTGR (recombinant SjTGR): did not inhibit; also recorded: neither did they inhibit the SjTGR activity
COc1ccc(-c2no[n+]([O-])c2C#N)cc1 [Compound 7a] |  |  |  |  |  |  |  |  | IC50 (recombinant SjTGR; IC50 of SjTGR): 12.2 µM; Mortality in adult worms of S. mansoni (S. mansoni): 100.0%
Cc1ccc(-c2no[n+]([O-])c2CO)cc1 [Compound 4b] | 1.7 | 8,669.2 ± 2,255.8 (P < 0.05^**) | 1.8 ± 1.5 (P > 0.05^**) |  | 83.1 (P < 0.01^*) % | 96 | 7007.8 ± 2420.2 (P < 0.05^**) | 9.0 ± 3.8 (P < 0.05^**) | Egg reduction rate [3]: 12.8 (P > 0.05^*) %; Worm reduction rate [3]: 25.0 (P > 0.05^*) %
C#CCOc1ccc(-c2no[n+]([O-])c2C#N)cc1 [Compound 20] | 3.3 | 7,767.5 ± 2,676.6 (P < 0.05^**) | 3.0 ± 0.9 (P < 0.05^**) | 3.3 (P > 0.05^*) % | 69.5 (P < 0.01^*) % | 87 | 10094.7 ± 1691.0 (P < 0.05^**) | 4.7 ± 1.1 (P > 0.05^**) | Worm reduction rate [3]: 61.1 (P < 0.01^*) %
Cc1ccc2cccc(OCc3ccc(-c4no[n+]([O-])c4C#N)cc3)c2n1 [Compound 28] | > 20 |  |  |  |  |  |  |  | IC50 of SjTGR (recombinant SjTGR): did not inhibit
N#Cc1c(-c2ccc(O)cc2)no[n+]1[O-] [Compound 8] |  |  |  |  |  |  |  |  | IC50 (recombinant SjTGR; IC50 of SjTGR): 37.4 µM; Mortality in adult worms of S. mansoni (S. mansoni): 100.0%
N#Cc1c(-c2ccc(OCc3ccccc3)cc2)no[n+]1[O-] [Compound 19] | > 20 |  |  |  |  |  |  |  | IC50 of SjTGR (recombinant SjTGR): did not inhibit; also recorded: neither did they inhibit the SjTGR activity
